Publication PMC12396409, “Screening and hit evaluation of a microbial metabolite library against the pathogenic Plasmodium falciparum and Toxoplasma gondii parasites” (International Journal for Parasitology: Drugs and Drug …, 2025)
Where two headings read alike, the source gives them in different places.

Key:
[1] = system: T. gondii RH strain (RH-Tub-eYFP) tachyzoites; experiment: microbe, parasite or virus in culture; type: cell-based, Toxoplasma gondii; details: 72 h, 72 h; for percent parasite growth at 2 µg/mL: Toxoplasma gondii
[2] = system: P. falciparum 3D7 parasites; experiment: P. falciparum growth inhibition assay, 1-cycle (72 h treatment), SYBR DNA staining (library screen at 2 μg/mL and dose-response); type: cell-based, Plasmodium falciparum; details: for activity at 2 µg/mL: Plasmodium falciparum
[3] = system: P. falciparum 3D7 parasites; experiment: P. falciparum growth inhibition assay, 2-cycle (120 h treatment), delayed-death screen and dose-response; type: cell-based, Plasmodium falciparum; details: for activity at 2 µg/mL: Plasmodium falciparum
[4] = T. gondii, screen at 2 μg/mL, replicate 1
[5] = T. gondii, screen at 2 μg/mL, replicate 2
[6] = P. falciparum, 72 h, screen at 2 μg/mL, replicate 1
[7] = P. falciparum, 72 h, screen at 2 μg/mL, replicate 2
[8] = P. falciparum, 120 h, screen at 2 μg/mL, replicate 1
[9] = P. falciparum, 120 h, screen at 2 μg/mL, replicate 2
[10] = T. gondii, parasite screen 2 μg/mL, % growth, replicate 1
[11] = T. gondii, parasite screen 2 μg/mL, % growth, replicate 2
[12] = P. falciparum, 72 h, parasite screen 2 μg/mL, % growth, replicate 1
[13] = P. falciparum, 72 h, parasite screen 2 μg/mL, % growth, replicate 2
[14] = P. falciparum, 120 h, parasite screen 2 μg/mL, % growth, replicate 1
[15] = P. falciparum, 120 h, parasite screen 2 μg/mL, % growth, replicate 2
[16] = T. gondii RH, library screen at 2 μg/mL, % growth, replicate 1
[17] = T. gondii RH, library screen at 2 μg/mL, % growth, replicate 2
[18] = P. falciparum 3D7, 72 h, library screen at 2 μg/mL, % growth, replicate 1
[19] = P. falciparum 3D7, 72 h, library screen at 2 μg/mL, % growth, replicate 2
[20] = P. falciparum 3D7, 120 h, library screen at 2 μg/mL, % growth, replicate 1
[21] = P. falciparum 3D7, 120 h, library screen at 2 μg/mL, % growth, replicate 2

SMILES: C[C@@H]1[C@H](O)[C@@H](C)/C=C/C=C/C=C/C=C/C=C/C=C/C=C/[C@H](O[C@@H]2O[C@H](C)[C@@H](O)[C@H](N)[C@@H]2O)C[C@@H]2O[C@](O)(C[C@@H](O)C[C@@H](O)[C@H](O)CC[C@@H](O)C[C@@H](O)CC(=O)O[C@H]1C)C[C@H](O)[C@H]2C(=O)O [Amphotericin B]
- percent parasite growth at 2 µg/mL ([1]; library screen at 2 μg/mL, % growth, replicate 1, read-out: Tg_72h_%Growth_Rep1): 101%
- percent parasite growth at 2 µg/mL ([1]; library screen at 2 μg/mL, % growth, replicate 2, read-out: Tg_72h_%Growth_Rep2): 86.5%
- activity at 2 µg/mL ([2]; 3D7, 72 h, library screen at 2 μg/mL, 72 h, % growth, replicate 1, read-out: Pf_72h_%Growth_Rep1): 84.3%
- activity at 2 µg/mL ([2]; 3D7, 72 h, library screen at 2 μg/mL, 72 h, % growth, replicate 2, read-out: Pf_72h_%Growth_Rep2): 90.2%
- activity at 2 µg/mL ([3]; 3D7, 120 h, library screen at 2 μg/mL, 120 h, % growth, replicate 1, read-out: Pf_120h_%Growth_Rep1): 77%
- activity at 2 µg/mL ([3]; 3D7, 120 h, library screen at 2 μg/mL, 120 h, % growth, replicate 2, read-out: Pf_120h_%Growth_Rep2): 69.3%

SMILES: C/C=C/C1=CC(=O)[C@@H](O)[C@@H]1O [Terrein]
- percent parasite growth at 2 µg/mL ([1]; T. gondii, screen at 2 μg/mL, replicate 1, read-out: Tg_72h_%Growth_Rep1): 125%
- percent parasite growth at 2 µg/mL ([1]; T. gondii, screen at 2 μg/mL, replicate 2, read-out: Tg_72h_%Growth_Rep2): 83.6%
- activity at 2 µg/mL ([2]; 3D7, P. falciparum, 72 h, screen at 2 μg/mL, replicate 1, read-out: Pf_72h_%Growth_Rep1): 77.7%
- activity at 2 µg/mL ([2]; 3D7, P. falciparum, 72 h, screen at 2 μg/mL, replicate 2, read-out: Pf_72h_%Growth_Rep2): 91.3%
- activity at 2 µg/mL ([3]; 3D7, P. falciparum, 120 h, screen at 2 μg/mL, replicate 1, read-out: Pf_120h_%Growth_Rep1): 82%
- activity at 2 µg/mL ([3]; 3D7, P. falciparum, 120 h, screen at 2 μg/mL, replicate 2, read-out: Pf_120h_%Growth_Rep2): 46.1%

SMILES: COc1c(C)c2c(c(O)c1C/C=C(\C)CCC(=O)O)C(=O)OC2 [BIA-M1207]
- Tg_72h_%Growth_Rep1 ([1]; T. gondii, parasite screen at 2 μg/mL, % growth, replicate 1): 1.75%
- Tg_72h_%Growth_Rep2 ([1]; T. gondii, parasite screen at 2 μg/mL, % growth, replicate 2): 2.10%
- Pf_72h_%Growth_Rep1 ([2]; P. falciparum 3D7, 72 h, parasite screen at 2 μg/mL, % growth, replicate 1): 27.32%
- Pf_72h_%Growth_Rep2 ([2]; P. falciparum 3D7, 72 h, parasite screen at 2 μg/mL, % growth, replicate 2): 1.32%
- Pf_120h_%Growth_Rep1 ([3]; P. falciparum 3D7, 120 h, parasite screen at 2 μg/mL, % growth, replicate 1): 16.21%
- Pf_120h_%Growth_Rep2 ([3]; P. falciparum 3D7, 120 h, parasite screen at 2 μg/mL, % growth, replicate 2): 22.24%

SMILES: CC[C@H]1NC(=O)[C@@H](NC(=O)c2ncccc2O)[C@@H](C)OC(=O)[C@H](c2ccccc2)NC(=O)[C@@H]2CC(=O)CCN2C(=O)[C@H](Cc2ccccc2)N(C)C(=O)[C@@H]2CCCN2C1=O [Virginiamycin S1]
- Tg_72h_%Growth_Rep1 [1, 4]: 137.70%
- Tg_72h_%Growth_Rep2 [1, 5]: 85.91%
- Pf_72h_%Growth_Rep1 [2, 6]: 88.54%
- Pf_72h_%Growth_Rep2 [2, 7]: 126.74%
- Pf_120h_%Growth_Rep1 [3, 8]: 110.70%
- Pf_120h_%Growth_Rep2 [3, 9]: 75.61%

SMILES: CC(=O)O[C@@H]1CC(=O)OC(C)(C)[C@H]2CC[C@@]3(C)[C@@H](CC=C(C)[C@]34C[C@]3(OC(C)=C(C)C3=O)C(=O)O4)[C@@]21C [Setosusin]
- Tg_72h_%Growth_Rep1 [1, 10]: 121.79%
- Tg_72h_%Growth_Rep2 [1, 11]: 85.10%
- Pf_72h_%Growth_Rep1 [2, 12]: 71.51%
- Pf_72h_%Growth_Rep2 [2, 13]: 99.05%
- Pf_120h_%Growth_Rep1 [3, 14]: 76.96%
- Pf_120h_%Growth_Rep2 [3, 15]: 104.05%

SMILES: CO[C@@H]1[C@H](N(C)C(=O)c2ccccc2)C[C@H]2O[C@]1(C)n1c3ccccc3c3c4c(c5c6ccccc6n2c5c31)C(=O)NC4=O [Stauprimide]
- Tg_72h_%Growth_Rep1 [1, 10]: 9.90%
- Tg_72h_%Growth_Rep2 [1, 11]: 20.75%
- Pf_72h_%Growth_Rep1 [2, 12]: 1.11%
- Pf_72h_%Growth_Rep2 [2, 13]: -9.03%
- Pf_120h_%Growth_Rep1 [3, 14]: 32.82%
- Pf_120h_%Growth_Rep2 [3, 15]: 11.28%

SMILES: CCC(C)C1OC2(CCC1C)CC1CC(CC=C(C)C(OC3CC(OC)C(OC4CC(OC)C(O)C(C)O4)C(C)O3)C(C)C=CC=C3COC4C(O)C(C)=CC(C(=O)O1)C34O)O2 (stereo not drawn) [BIA-I1119]
- Tg_72h_%Growth_Rep1 [1, 16]: 98.36%
- Tg_72h_%Growth_Rep2 [1, 17]: 101.63%
- Pf_72h_%Growth_Rep1 [2, 18]: 86.44%
- Pf_72h_%Growth_Rep2 [2, 19]: 71.84%
- Pf_120h_%Growth_Rep1 [3, 20]: 82.92%
- Pf_120h_%Growth_Rep2 [3, 21]: 106.39%

SMILES: CN1C(=O)c2ccccc2NC(=O)/C1=C/c1ccccc1 [Dehydrocyclopeptine]
- Tg_72h_%Growth_Rep1 [1, 4]: 109.69%
- Tg_72h_%Growth_Rep2 [1, 5]: 83.37%
- Pf_72h_%Growth_Rep1 [2, 6]: 83.17%
- Pf_72h_%Growth_Rep2 [2, 7]: 27.60%
- Pf_120h_%Growth_Rep1 [3, 8]: 82.86%
- Pf_120h_%Growth_Rep2 [3, 9]: 97.23%

SMILES: CCC(C)C1OC2(CCC1C)CC1CC(CC=C(C)C(O)C(C)C=CC=C3COC4C(O)C(C)=CC(C(=O)O1)C34O)O2 (stereo not drawn) [BIA-I1151]
- Tg_72h_%Growth_Rep1 [1, 16]: 121.58%
- Tg_72h_%Growth_Rep2 [1, 17]: 95.56%
- Pf_72h_%Growth_Rep1 [2, 18]: 82.86%
- Pf_72h_%Growth_Rep2 [2, 19]: 77.78%
- Pf_120h_%Growth_Rep1 [3, 20]: 87.69%
- Pf_120h_%Growth_Rep2 [3, 21]: 91.70%
